Experimental data taken from article PMC8072719, “Synthesis and Antiproliferative Activity of Triazoles Based on 2-Azabicycloalkanes” (Materials, 2021).
Where two headings read alike, the source gives them in different places.

How the values were obtained:
Hs294T = assay: Growth inhibition assay (SRB assay), melanoma cell line Hs294T; format: cell-based, human; conditions: Homo sapiens, Hs 294T, 72 h, mean ± SD
Description: (§1) Three human cancer cell lines were used to evaluate the antiproliferative activity of the obtained compounds: melanoma cell line Hs294T, pancreatic tumor cell line MIA PaCa-2, and lung tumor cell line NCI-H1581. The normal mouse fibroblasts cell line (BALB/3T3 clone A31) was selected as reference. All these lines were purchased from the ATCC (American Type Culture Collection, Rockville, MD, USA). NCI-H1581 cells were grown in RPMI 1640 with GlutaMax medium (Gibco, Thermo Fisher Scientific, Leicestershire, UK) with 5% fetal bovine serum (FBS; HyClone, GE Healthcare, Logan, UT, USA). Hs294T and BALB/3T3 cells were grown in Dulbecco’s Modified Eagle Medium (DMEM; Gibco, Thermo Fisher Scientific, Leicestershire, UK) supplemented with 2 mM L-glutamine and 10% FBS (HyClone, GE Healthcare, Logan, UT, USA). MIA PaCa-2 cells were grown in DMEM (Gibco, Thermo Fisher Scientific, Leicestershire, UK) supplemented with 2 mM L-glutamine, 2.5% Horse Serum (Gibco, Thermo Fisher Scientific, Leicestershire, UK), and 10% FBS (HyClone, GE Healthcare, Logan, UT, USA). All culture media were supplemented with antibiotics: 100 U/mL penicillin (Polfa Tarchomin SA, Warsaw, Poland) and 100 µg/mL streptomycin (Sigma-Aldrich Chemie GmbH, Steinheim, Germany); cells were grown at 37 °C in a humid atmosphere with 5% CO2.
(§2) Twenty-four hours prior to the addition of the tested compounds, 2000 cells per well of Balb/3T3, MIA PaCa-2, and Hs294T cell lines and 2500 cells of NCI-H1581 cell line were seeded in 384-well plates (Greiner Bio-One, Kremsmünster, Austria) in an appropriate medium. The studied compounds were added to the cells at 8 different concentrations in a series of dilutions from 100 to 0.00001 µg/mL for 72 h. Cisplatin was applied as a reference compound (Teva Pharmaceuticals, Warsaw, Poland). DMSO (Sigma-Aldrich Chemie GmbH, Steinheim, Germany) was used as solvent control. The DMSO concentrations corresponded to the solvent concentrations in the tested compound solutions. Then, 30 µL per well of ice-cold 50% TCA (trichloroacetic acid, Avantor, Gliwice, Poland) was added to the cells. After one hour of incubation at room temperature (RT) cells were washed five times with water and stained with 0.4% SRB (sulforhodamine B, Sigma-Aldrich Chemie GmbH, Steinheim, Germany). Twenty-five microliters per well of 0.4% solution of SRB in 1% acetic acid (Avantor, Gliwice, Poland) was applied. After 0.5 h of incubation at RT, the unbound dye was washed out with 1% acetic acid. The bound dye in each well was dissolved in 70 µl of 10 mM TRIS (Tris base, Sigma-Aldrich, Chemie GmbH, Steinheim, Germany). A microplate reader (BioTek Synergy H4, Swindon, UK) with Gen5 software was used to read the absorbance at 540 nm. The results are presented as mean IC50 values (concentration of the compound that inhibits cell proliferation by 50%) ± standard deviation. Half-maximal inhibitory concentration (IC50) values were calculated using the Prolab-3 system based on Cheburator 0.4 [22]. Each experiment was performed in triplicate, and three independent repetitions were made for each experiment. Raw data and IC50 values were placed in the supplementary materials.

MIA PaCa-2 = assay: Growth inhibition assay (SRB assay), pancreatic tumor cell line MIA PaCa-2; format: cell-based, human; conditions: Homo sapiens, mean ± SD
Description: as §1, §2

NCI-H1581 = assay: Growth inhibition assay (SRB assay), lung tumor cell line NCI-H1581; format: cell-based, human; conditions: for IC50: 72 h, SRB, mean ± SD; for SI (Selectivity Index): SI = IC50 for normal cell line BALB/3T3 / IC50 for NCI-H1581
Description: as §1, §2

BALB/3T3 clone A31 = assay: Growth inhibition assay (SRB assay), normal fibroblasts BALB/3T3 clone A31; format: cell-based, mouse; conditions: mean ± SD
Description: as §1, §2

[1] = Solvability in DMSO (table footnote); format: physicochemical; parameters: key to solvability in dimethyl sulfoxide (DMSO): **: poor or no solvability in dimethyl sulfoxide (DMSO); key to solvability in DMSO: [b]: poor or no solvability in DMSO
[2] = supplement, read-out: IC50 Hs294T (raw data)
[3] = MIA PaCa-2, 72 h, read-out: IC50 MIA PaCa-2
[4] = MIA PaCa-2, supplement, 72 h, read-out: IC50 MIA PaCa-2 (raw data)
[5] = Homo sapiens, NCI-H1581, 72 h, read-out: IC50 NCI-H1581
[6] = Homo sapiens, NCI-H1581, 72 h, supplement, read-out: IC50 NCI-H1581 (raw data)
[7] = Mus musculus, BALB/3T3 clone A31, 72 h, normal cell line, read-out: IC50 BALB3T3
[8] = Mus musculus, BALB/3T3 clone A31, 72 h, supplement, read-out: IC50 BALB3T3 (raw data)

SMILES | IC50 (Hs294T; read-out: IC50 Hs294T) [µM] | IC50 (Hs294T; [2]) | IC50 (MIA PaCa-2; [3]) [µM] | IC50 (MIA PaCa-2; [4]) | IC50 (NCI-H1581; read-out: IC50 NCI-H1581) [µM] | IC50 (NCI-H1581; [5]) [µM] | IC50 (NCI-H1581; [6]) | IC50 (BALB/3T3 clone A31; [7]) [µM] | IC50 (BALB/3T3 clone A31; [8]) | solvability in dimethyl sulfoxide (DMSO) [1] | solvability in DMSO ([1]; supplement) | SI (Selectivity Index) (NCI-H1581) | IC50 (Hs294T; supplement, read-out: IC50 Hs294T (non-rounded data)) [µM] | IC50 (MIA PaCa-2; MIA PaCa-2, supplement, 72 h, read-out: IC50 MIA PaCa-2 (non-rounded data)) [µM] | IC50 (NCI-H1581; Homo sapiens, NCI-H1581, 72 h, supplement, read-out: IC50 NCI-H1581 (non-rounded data)) [µM] | IC50 (BALB/3T3 clone A31; Mus musculus, BALB/3T3 clone A31, 72 h, supplement, read-out: IC50 BALB3T3 (non-rounded data)) [µM] | IC50 (BALB/3T3 clone A31; 72 h, normal cell line, read-out: IC50 BALB3T3) [µM]
CC(c1ccccc1)N1C2CCC(C2)C1c1cn(CC2CCCN2C(=O)OC(C)(C)C)nn1 (centres unmarked) [Compound 21] | 92.6 ± 22 | 41.8 ± 9.92 µg/mL | 90.28 ± 0.69 | 40.77 ± 0.31 µg/mL | 77.6 ± 8.68 | 77.6 | 35 ± 3.92 µg/mL | > 100 | 48.8 ± 10.1 µg/mL | 21 ** | [b] | – | – | – | – | – | –
C=CC(=O)OCc1cn([C@@H]2CN([C@@H](C)c3ccccc3)[C@H]3CC[C@@H]2C3)nn1 [Compound 4, (1-((1S,4S,5R)-2-((S)-1-phenylethyl)-2-azabicyclo[3.2.1]octan-4-yl)-1H-1,2,3-triazol-4-yl)methyl acrylate] | 9.52 ± 2.51 | 3.49 ± 0.92 µg/mL | 87.7 ± 1.66 | 32.1 ± 0.61 µg/mL | – | 7.91 ± 1.2 | 2.9 ± 0.44 µg/mL | 1.75 ± 0.76 | 0.64 ± 0.28 µg/mL | – | – | 0.2 | – | – | – | – | –
C[C@@H](c1ccccc1)N1C[C@@H](n2cc(CO)nn2)[C@@H]2CC[C@H]1C2 [Compound 1, (1-((1S,4S,5R)-2-((S)-1-phenylethyl)-2-azabicyclo[3.2.1]octan-4-yl)-1H-1,2,3-triazol-4-yl)methanol] | > 100 | > 100 µM | > 100 | > 100 µM | – | > 100 | > 100 µM | > 100 | > 100 µM | – | – | – | > 100 | > 100 | > 100 | > 100 | –
C[C@@H](c1ccccc1)N1C[C@H](n2cc(CO)nn2)[C@@H]2CC[C@H]1C2 [Compound 2, (1-((1S,4R,5R)-2-((S)-1-phenylethyl)-2-azabicyclo[3.2.1]octan-4-yl)-1H-1,2,3-triazol-4-yl)methanol] | > 100 | 46.1 ± 2.17 µg/mL | > 100 | 71.4 ± 11.8 µg/mL | – | 72.3 ± 34 | 22.6 ± 10.6 µg/mL | > 100 | 56.1 ± 8.24 µg/mL | – | – | – | – | – | – | – | –
C[C@@H](c1ccccc1)N1C[C@@H](n2cc(CN(Cc3cn([C@@H]4CN([C@@H](C)c5ccccc5)[C@H]5CC[C@@H]4C5)nn3)Cc3cn([C@@H]4CN([C@@H](C)c5ccccc5)[C@H]5CC[C@@H]4C5)nn3)nn2)[C@@H]2CC[C@H]1C2 [Compound 18, N,N,N-tri((1-((1S,4S,5R)-2-((S)-1-phenylethyl)-2-azabicyclo[3.2.1]octan-4-yl)-1H-1,2,3-triazol-4-yl)methyl) amine] | 20.8 ± 5.02 | 18.8 ± 4.52 µg/mL | 25.7 ± 0.26 | 23.11 ± 0.23 µg/mL | 2.44 ± 0.07 | 2.4 | 2.2 ± 0.06 µg/mL | 23.1 ± 2.72 | 20.8 ± 2.45 µg/mL | – | – | – | – | – | – | – | –
C[C@@H](c1ccccc1)N1C[C@@H](n2cc(COCc3ccccc3)nn2)[C@@H]2CC[C@H]1C2 [Compound 8, (1S,4S,5R)-4-(4-((benzyloxy)methyl)-1H-1,2,3-triazol-1-yl)-2-((S)-1-phenylethyl)-2-azabicyclo[3.2.1]octane] | 73.8 ± 10.1 | 29.7 ± 4.07 µg/mL | 79.12 ± 0.5 | 31.85 ± 0.2 µg/mL | – | 15.48 ± 0.12 | 6.23 ± 0.05 µg/mL | 61.5 ± 3.28 | 24.7 ± 1.32 µg/mL | – | – | 4 | – | – | – | – | –
C=CC(=O)OCc1cn([C@H]2CN([C@@H](C)c3ccccc3)[C@H]3CC[C@@H]2C3)nn1 [Compound 5, (1-((1S,4R,5R)-2-((S)-1-phenylethyl)-2-azabicyclo[3.2.1]octan-4-yl)-1H-1,2,3-triazol-4-yl)methyl acrylate] | 72.8 ± 9.71 | 26.7 ± 3.56 µg/mL | 86.31 ± 0.35 | 31.63 ± 0.13 µg/mL | – | 18.8 ± 4.45 | 6.88 ± 1.63 µg/mL | 28.5 ± 22.7 | 10.5 ± 8.31 µg/mL | – | – | 1.5 | – | – | – | – | –
C[C@@H](c1ccccc1)N1C[C@@H](n2cc(-c3cccc(N)c3)nn2)[C@@H]2CC[C@H]1C2 [Compound 6, 3-(1-((1S,4S,5R)-2-((S)-1-phenylethyl)-2-azabicyclo[3.2.1]octan-4-yl)-1H-1,2,3-triazol-4-yl)aniline] | 74.5 ± 14.9 | 27.8 ± 5.58 µg/mL | 84.4 ± 1.04 | 31.5 ± 0.39 µg/mL | – | 30.8 ± 3.51 | 11.5 ± 1.31 µg/mL | 77.1 ± 1.1 | 28.8 ± 0.41 µg/mL | – | – | 2.5 | – | – | – | – | –
C[C@@H](c1ccccc1)N1C[C@H](n2cc(COCc3cn([C@H]4CN([C@@H](C)c5ccccc5)[C@H]5CC[C@@H]4C5)nn3)nn2)[C@@H]2CC[C@H]1C2 [Compound 13, (1S,1′S,4R,4′R,5R,5′R)-4,4′-(4,4′-(oxybis(methylene))bis(1H-1,2,3-triazole-4,1-diyl))bis(2-((S)-1-phenylethyl)-2-azabicyclo[3.2.1]octane)] | 13.7 ± 2.31 | 8.28 ± 1.4 µg/mL | 44.9 ± 3.69 | 27.2 ± 2.24 µg/mL | – | 4.88 ± 0.41 | 2.96 ± 0.25 µg/mL | 46.1 | 27.9 ± 6.85 µg/mL | – | – | 9 | – | – | – | – | 46.1 ± 11.3
